Results on two compounds are retold here after article PMC3758303 (PLoS ONE, 2013).

As usually defined, the EC50 is the concentration giving half of the maximal effect. One may read the CC50 as the concentration that lowers cell viability or growth by half. Read a low CC50 as greater toxicity to the cells.

Data set [1] has as its system genome-length HCV-RNA (1B-4 strain of genotype 1b) replication in Li23-derived 1B-4RL cells. Briefly: 1B-4RL RL assay. Particulars: Hepatitis C virus, 1B-4RL assay, Li23, HCV strain 1B-4, 72 hrs. The data set is classed as cell-based. The protocol:
(§1) RSc and D7 cells were derived from the cell lines HuH-7 and Li23, respectively, were cultured as described previously, [29]. HuH-7-derived OR6 [13], AH1R [30], and 1B-4R [Ikeda et al., submitted] cells harboring genome-length HCV-RNA and HuH-7-derived polyclonal sOR [31], and RSc-JRN/35B [Ikeda et al., submitted] cells harboring an HCV subgenomic replicon were cultured with medium in the presence of G418 (0.3 mg/ml; Geneticin, Invitrogen, Carlsbad, CA) as described previously. Li23-derived ORL8 [20], ORL11 [20], 1B-4RL [Ikeda et al., submitted], and KAH5RL [Ikeda et al., submitted] cells harboring genome-length HCV-RNA were maintained with medium in the presence of G418 (0.3 mg/ml) as described previously. Li23-derived polyclonal sORL8 and sORL11 cells harboring an HCV replicon, which were established by the transfection of ORN/3-5B/QR,KE,SR RNA into the cured OL8 and OL11 cells, respectively, were also cultured with medium in the presence of G418 (0.3 mg/ml) as described previously. Cured cells, from which the HCV-RNA had been eliminated by IFN treatment, were also maintained with medium in the absence of G418 as described previously. […] Therefore, when HCV-RNA is excluded from the cells or when its level is decreased, the cells are killed in the presence of G418. […]
(§2) The SI value of each reagent was determined by dividing the CC50 value by the EC50 value.

Data set [2] can be described thus: WST-1 cell proliferation assay, sOR cells. As to conditions: human. The data set is classed as cell-based. The protocol: (§3) The WST-1 cell proliferation assay was performed as described previously. Briefly, The cells were plated onto 96-well plates (1×10^3 cells per well) in triplicate and then treated with each reagent at several concentrations for 72 hrs. After treatment, the cells were subjected to the WST-1 cell proliferation assay (Takara Bio, Otsu, Japan) according to the manufacturer’s protocol. This assay is based on the enzymatic cleavage of the tetrazolium salt WST-1 to formazan by cellular mitochondrial dehydrogenases present in viable cells. Therefore, there are […] the value of the WST-1 assay becomes zero. The experiments were performed at least in triplicate. From the assay results, the 50% cytotoxic concentration (CC50) of each reagent was determined.
On the technique in general: Formazan colour is commonly taken as a measure of viable cells.

The nature of data set [3]: WST-1 cell proliferation assay, ORL11 cells. It counts as cell-based. Particulars: human. The protocol:
as §3

Data set [4] concerns genome-length HCV-RNA (O strain of genotype 1b) replication in HuH-7-derived OR6 cells. The experiment in a line: OR6 RL assay. It counts as cell-based, hepatitis C virus. Particulars: for EC50: Hepatitis C virus, OR6 assay, HuH-7, HCV strain O, 72 hrs, RL assay. The protocol: RSc and D7 cells were derived from the cell lines HuH-7 and Li23, respectively, were cultured as described previously, [29]. HuH-7-derived OR6 [13], AH1R [30], and 1B-4R [Ikeda et al., submitted] cells harboring genome-length HCV-RNA and HuH-7-derived polyclonal sOR [31], and RSc-JRN/35B [Ikeda et al., submitted] cells harboring an HCV subgenomic replicon were cultured with medium in the presence of G418 (0.3 mg/ml; Geneticin, Invitrogen, Carlsbad, CA) as described previously. Li23-derived ORL8 [20], ORL11 [20], 1B-4RL [Ikeda et al., submitted], and KAH5RL [Ikeda et al., submitted] cells harboring genome-length HCV-RNA were maintained with medium in the presence of G418 (0.3 mg/ml) as described previously. Li23-derived polyclonal sORL8 and sORL11 cells harboring an HCV replicon, which were established by the transfection of ORN/3-5B/QR,KE,SR RNA into the cured OL8 and OL11 cells, respectively, were also cultured with medium in the presence of G418 (0.3 mg/ml) as described previously. Cured cells, from which the HCV-RNA had been eliminated by IFN treatment, were also maintained with medium in the absence of G418 as described previously. […] Therefore, when HCV-RNA is excluded from the cells or when its level is decreased, the cells are killed in the presence of G418.
RL assay was performed as described previously, [24]. Briefly, the cells were plated onto 24-well plates (2×10^4 cells per well) in triplicate and then treated with each reagent at several concentrations for 72 hrs. After treatment, the cells were subjected to luciferase assay using the RL assay system (Promega, Madison, WI). The experiments were performed at least in triplicate. From the assay results, the 50% effective concentration (EC50) of each reagent was determined.
as §2

In data set [5] the test system is genome-length HCV-RNA (AH1 strain of genotype 1b) replication in HuH-7-derived AH1R cells. The experiment in a line: AH1R RL assay. It counts as cell-based. As to conditions: Hepatitis C virus, HuH-7, HCV strain AH1, 72 hrs. On the procedure:
as §1, §2

The nature of data set [6]: WST-1 cell proliferation assay, AH1R cells. Particulars: human. It counts as cell-based. The protocol: as §3
Data set [7] has as its system authentic 9.6 kb HCV-RNA replication in HCV-O/RLGE cells. The experiment in a line: Quantitative RT-PCR of authentic HCV-RNA in HCV-O/RLGE cells. The data set is classed as cell-based. Particulars: Hepatitis C virus, 72 hrs, real-time LightCycler PCR. The protocol:
as §2
The RNAs from HCV-RNA replicating cell lines were prepared with an RNeasy extraction kit (Qiagen). The quantitative RT-PCR analysis for HCV-RNA was performed using a real-time LightCycler PCR (Roche Diagnostics, Basel, Switzerland) as described previously, [20].
(§4) The genome-length HCV-RNA used in the assay systems described above contains three non-natural elements: RL, neomycin phosphotransferase, and an internal ribosomal entry site of encephalomyocarditis virus. To exclude the possibility that the anti-HCV activity of N-89 or N-251 was due to the inhibition of these three exogenous elements, we examined the anti-HCV activities of N-89 and N-251 using the authentic 9.6 kb HCV-RNA-replicating HCV-O/RLGE cells, which were developed by the introduction of in vitro synthesized HCV-O/RLGE RNA (Fig. 2A) into OR6c cured cells.
Figure 2 Characterization of anti-HCV activities of N-89 and N-251. (A) Schematic gene organization of authentic HCV-RNA (HCV-O/RLGE). The positions of four adaptive mutations - Q1112R, P1115L, E1202G, and K1609E - are indicated by a black star. […] The relative value (%) calculated at each point, when the level in non-treated cells was assigned as 100%, is presented here. Data are expressed as the means±standard deviation of triplicate assays. […]

Data set [8] in a line: WST-1 cell proliferation assay, sORL11 cells. The data set is classed as cell-based. As to conditions: human. On the procedure: as §3
Data set [9] is described as follows: WST-1 cell proliferation assay, sORL8 cells. It counts as cell-based. Particulars: human. On the procedure:
as §3

Data set [10] has as its target T1, renilla luciferase (RL) activity (Renilla reniformis, UniProt P27652).
T1 construct: expressed in transfected cells; host or cells: OR6 (HuH-7-derived) and ORL8 (Li23-derived) cells harbouring genome-length HCV-RNA that encodes RL; cell lysate
Briefly: Direct effect on RL activity in cell lysate. It counts as biochemical.
Excerpt: as §4
Supplementary file pone.0072519.s002.tif: Figure S2 No inhibition of RL activity by N-89 or N-251. […] N-89 or N-251 was added to the OR6 cell lysate, and then an RL assay was performed. […] N-89 or N-251 was added to the ORL8 cell lysate, and then an RL assay was performed. (TIF) Click here for additional data file.

In data set [11] the test system is malaria parasites. Also noted: method as in PMID 21501696, PMID 21924377. Particulars: compared with N-89; cited from earlier work.
The mark [12] stands for this setting: reagent added along with substrate to OR6 cell lysate.
Setting [13] is: reagent added along with substrate to ORL8 cell lysate.

T1 sequence (P27652 whole entry): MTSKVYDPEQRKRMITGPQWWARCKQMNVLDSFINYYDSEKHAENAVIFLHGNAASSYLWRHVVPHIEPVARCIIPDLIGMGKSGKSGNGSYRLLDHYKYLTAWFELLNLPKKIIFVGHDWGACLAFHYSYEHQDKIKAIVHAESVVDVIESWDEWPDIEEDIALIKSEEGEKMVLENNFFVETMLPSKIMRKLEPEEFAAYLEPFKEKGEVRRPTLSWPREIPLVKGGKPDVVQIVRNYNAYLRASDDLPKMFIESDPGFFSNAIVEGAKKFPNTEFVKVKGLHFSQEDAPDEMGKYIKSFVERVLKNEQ

As for `C1CCCCCC2(CCCCC1)OOCCCOO2` [N-89, 1,2,6,7-Tetraoxaspiro[7.11]nonadecane], the EC50 is 120 nM in data set [1], 660 nM in data set [4], 25 nM in data set [5] and 2000 nM in data set [7]. The CC50 at 72 h is 1700 nM in data set [2]; 560 nM in data set [3]; over 500 nM in data set [6]; 1700 nM in data set [8]; 1100 nM in data set [9]. Also, in data set [4] (8 µM in OR6 cells, without a decrease in cell viability), the “anti-HCV activity (suppression)” value is on record as over 99%. Further, the “direct effect on RL activity” value in [10] (setting [12]) and in data set [10] (setting [13]) was “No suppressive effects” each time.
With `OCCCCCCC1COOC2(CCCCCCCCCCC2)OOC1` [N-251, 6-(1,2,6,7-tetraoxaspiro[7.11]nonadec-4-yl)hexan-1-ol], the EC50 turned out to be 230 nM in [1], 690 nM in data set [4], 140 nM in data set [5] and 1600 nM in data set [7]. Besides, the CC50 at 72 h amounted to 2200 nM in [2]; 1100 nM in data set [3]; 490 nM in [6]; 3100 nM in data set [8]; 4100 nM in [9]. Also, the “potency against malaria parasites” value in data set [11] is listed as “as potent as N-89”. For the same compound, the “direct effect on RL activity” value in [10] (setting [12]) and in data set [10] (setting [13]) was “No suppressive effects” each time.
